Legend:
[1] = molecular target: T1, C-GMP-PDE (type V) (Homo sapiens, UniProt O76074); assay: Pharmacological test 4: C-GMP-PDE (type V) inhibition action; assay type: biochemical; settings: FI fraction from human blood platelet
T1 construct: from tissue; host or cells: human blood platelets (healthy adult), DEAE-cellulose fraction FI
Method: (C-GMP-PDE (type V) inhibition action)
The separation and purification of PDE from a human blood platelet was conducted according to a method of Hidaka et al. [Hidaka, H. and Asano, I., Biochem. Biophys. Acta 429, 485-497 (1976)]. That is, a blood platelet derived from a healthy adult was washed with water, floated with a Tris buffer solution and centrifuged. Then, the supernatant thereof was applied to DEAE-cellulose and separated into three fractions, FI, FII and FIII due to concentration gradient of sodium acetate. By using FI having high affinity to C-GMP, the inhibition action of the test compound was examined. The influence of the drug on PDE was represented by the inhibition ratio to PDE activity in the absence of the drug.

[2] = test system: mouse dorsal root ganglion cells; assay: Pharmacological Test 2: neurite outgrowth in primary culture of mouse dorsal root ganglion cells; assay type: cell-based, mouse (C57BL/6); parameters: key: +: positive; ±: false positive; -: negative; settings: Dose 10^-7 (mole); 7 days culture
Method: (The measurement of neurite outgrowth in primary culture of mouse dorsal root ganglion cells)
Preparation of cells was conducted according to a method of Horie et al. [H. Horie., FEBS, 296, 23 (1990)]. That is, C57BL/6 male mice aged 10 to 15 weeks were used. They were bleeded to death under ether anesthetization and the backbone from cervical vertebra to sacral vertebra was removed. The capsule of dorsal root ganglion of which ventral root and dorsal root had been cut was stripped in a Ham F12 medium (Flow laboratories) and then ganglia were treated with 0.25% collagenase (Worthington Biochemical Corporation) at 37° C. for 90 minutes. The medium was replaced by a Hank's physiological buffer solution containing no calcium and magnesium and cells were treated with 0.25% trypsin (Flow Laboratories) at room temperature for 20 minutes. A trypsin inhibitor (Sigma, 100 μg/ml) was added to terminate the enzyme reaction and trituration was conducted 20 times using a tapered Pasteur pipette. The medium was replaced again by the Ham F12 medium and cells were put through a nylon mesh (150 μm) to remove a cell mass which had not been separated. Cells were suspended in the Ham F12 medium containing a N1 additive [Bottenstein, J. E., Exp. Cell. Res., 125, 183 (1980)] (kanamycin of 60 μg/ml added).
A poly-1-lysine-coating cell disc as a culture medium which had been subjected to 10 μg/ml laminin (Koken Cell Gen) coating treatment at 37° C. for 3 hours was placed on a 24 well dish and nerve cells (5000 to 10000 cells/dish) were seeded. The test compound (concentration: 0.01 mol/l) was dissolved in dimethyl sulfoxide and diluted with a phosphate buffer solution to adjust to a final concentration, and then added to a culture solution. Cells were cultured in 5% CO2 -95% air phase at 37° C. for 7 days.
For the measurement of neurite outgrowth, the cell disc was washed with a phosphate buffer solution 7 days after initiation of the culture and immobilized with 4% paraformaldehyde at 4° C. for 24 hours, and then immune staining was conducted with Vecstatin ABC kit (Vector) using a neurofilament antibody (200 kD, manufactured by Boehringer Mannheim GmbH). The periphery of the cell disc was restrictively observed under microscopy, and the amount of neurofilament (whole length per well) was evaluated by comparing with the control well according to the following criteria: positive (+), false positive (±) and negative (-).

[3] = test system: hyperoxidation reaction of lipid (microsome fraction); assay: Pharmacological test 3: antioxidation action, hyperoxidation reaction of lipid due to ascorbic acid induction in liver microsome fraction (TBA value); assay type: biochemical, Wister rat; settings: 37° C., 15 minutes; 200 μM ascorbic acid, 20 μM ferrous sulfate; read-out: IC50 (antioxidation, 50% inhibition concentration)
Method: (The measurement of antioxidation action)
The antioxidation action was measured using the hyperoxidation reaction of lipid due to ascorbic acid induction [Shimada, O. and Yasuda, H. BBA489, 163-172 (1977)].
Microsome fraction was obtained from a lever of Wister rat by a Kato's method [J. Biochem., 59, 574 (1966)]. This fraction was added to a 60 mM potassium phosphate buffer solution (containing 45 mM potassium chloride, 200 μM ascorbic acid and 20 μM ferrous sulfate) in an amount of 1 mg/ml and the test compound (0.1% dimethyl sulfoxide) was added, and the mixture was incubated at 37° C. for 15 minutes. The same amount of 10% trichloroacetic acid was added and the resultant was centrifuged. A portion of the supernatant was collected and the amount of malondialdehyde due to thiobarbituric acid (TBA value) was measured [Klaassen, C. D. and Plaa, G. L. Biochem. Pharmacol., 18: 2019 (1969)]. The inhibition ratio was calculated by the following formula:
Inhibition ratio={1-(TBA value of specimen)/(TBA value of […]

[4] = test system: Nerve cells of the cerebral cortex; assay: Pharmacological test 1: neurite sprouting (NS) of cultured fetal rat cerebral cortex nerve cells, phase contrast microscopy versus control; assay type: cell-based; parameters: key: ++: extremely strong in comparison with the control; +: strong in comparison with the control; ±: same as the control; -: inferior to the control; settings: Dose 10^-6 (mole); 10 days after initiation of culture
Excerpt: Nerve cells of the cerebral cortex were removed aseptically from a fetal rat (17 days-old) and cultured according to a Asou's method [Asou, H. Brain Res., 332; pages 355-357 (1985)]. After the meninx, blood vessel, etc. were removed from the cerebral hemisphere, they were put through a stainless steel mesh (pore size: 140μm). Then, the isolated cells were floated on a culture medium (Eagle's basal medium containing 10% fetal bovine serum and glucose of 1 g/l) and 1.5×10^6 cells were respectively seeded on a dish (diameter: 35 mm) coated with poly-L-lysine to initiate the culture (37° C., 3% CO2). After 24 hours, the culture medium was replaced by a culture medium containing a test compound and cultured for additional 9 days.
10 Days after initiation of the culture, neurite sprouting (NS) was evaluated under phase contrast microscopy by comparing with the control group.

Row | Structure (SMILES) | IC50 [1] [µM] | Neurite outgrowth action [2] | IC50 [3] [µM] | neurite sprouting (NS) [4]
1 | C=CCc1cc2c(cc1O)C(=O)c1c-2ccc(O)c1CC=C [Example 47, 1,6-Diallyl-2,7-dihydroxyfluorenone] | 3.4 | + | 0.2 | +
2 | C=CCc1cc2c(cc1O)C(=O)c1cc(O)c(CC=C)cc1-2 [Example 49] | 2.2 | + | 2.1 | +

Source: patent publication US5942641A, “Fluorenone derivatives, process for preparing the same and central or peripheral nerve degeneration repair and protective agent” (Otsuka Pharmaceutical Co., Ltd., priority 1993, dated 1999)
